What was measured:
S. mutans UA159 biofilm = assay: Minimum biofilm inhibition concentration (MBIC50), MTT; format: cell-based, Streptococcus mutans; conditions: 24 h
Protocol: Characterization analysis of pHly -1 NPs at different pHs. The morphology of pHly-1 NPs at pH 4.5 and 7.0were analyzed by TEM and AFM, respectively 3,4. TEM images were taken by a Tecnai G2 F20 microscope with an accelerating voltage of 100 kV. The final concentration of TEM samples of pHly -1 NPs was 100 μM. An 8 μL TEM sample was pipetted onto the carbon-coated copper grid surface for 3 min and removed by filter paper. Then, 8 μ L of 2 wt % uranyl acetate was dripped onto the grid for staining 3 min. After removing the droplet with filter paper, the grid was dried in a desiccator before measurement. […]
The secondary structure of pHly-1 NPs in different solutions at pH 4.5 and 7.0 was determined by Jasco-810 spectropolarimeter using 2 mm quartz slides at 25 °C.
According to the method reported in the literature5 to prepare l iposome required in the secondary structure test. […] All spectra were recorded with a wavelength interval of 0.5 nm. […] In addition, Zeta (ζ ) potentials and hydrodynamic sizes of pHly-1 NPs were measured using a Zetasizer (Malvern Instruments, UK). […]
RNA- seq Analysis. […] T he quality and quantity of the RNA were assessed by NanoDrop 2000/2000c (Thermo Scientific, Wilmington, DE, USA). RNA integrity number (RIN) was analyzed by Agilent 2100 Bioanalyzer (Agilent Technologies, Santa Clara, CA, USA). […] The cleaned reads were mapped to the S.mutans reference genome using Rockhooper26. […]

[1] = test system: S. mutans UA159 biofilms on sHA; assay: Biofilm model on saliva-coated hydroxyapatite (sHA); format: cell-based, Streptococcus mutans; conditions: 55 µM; pH 4.5; 10 min, total of 5 days; n = 3
From the text: Treatment and quantitative analysis of b iofilm model on sHA. S.mutans biofilms also formed on sHA blocks (surface area=1 ± 0.2 cm2) in 24-well plates. According to the literature10, before the experiment, hydroxyapatite (diameter, 1.25 cm; Kunshan Chinese technology new materials CO, LTD) was coated with filter-sterilized clarified human whole saliva. The biofilm formation, treatment regimen, and quantitative analysis were roughly similar to the biofilms formed on circular glass slides as described above. The differences are that the biofilms should be treated after 24 hours of formation and biofilms were treated every other day for a total of 5 days. In addition, after treatment for 5 days, the sHA blocks were washed with PBS (pH 7.0) and then fixed with 2.5 % glutaraldehyde for 10 min. After being washed another 3 times with PBS (pH 7.0) to remove the remaining glutaraldehyde, the sHA blocks were stained using 0.5% crystal violet for 20 min. The fully washed sHA blocks were observedunder a light microscope (Insein Li Fung1080P 60FPS, China).
Treatment and quantitative analysis of human derived ex vivo biofilm s. […] The total cultivable bacteria for ex vivo biofilm formation was measured to ensure the same density of added bacteria (~2× 108). […] The quantitative analysis was measured by counting the CFU of alive bacteria with agar plating after incubation for 48 h at 37 °C. […]

[H]/N=C(\N/C(=N/[H])NCCCCCCNC(=N)NC(=N)Nc1ccc(Cl)cc1)Nc1ccc(Cl)cc1 [CHX, chlorhexidine]
MBIC50 (S. mutans UA159 biofilm; pH 5.5, BHI with 1% sucrose): 0.6 µM
MBIC50 (S. mutans UA159 biofilm; pH 7.0, BHI with 1% sucrose): 0.8 µM
biofilm on sHA, viable cell count (CFU) [1]: apparent antibiofilm efficacy
